A short description of this data set: LC/MS measurement of lidocaine and its metabolite MEGX in cerebrospinal fluid of lidocaine-administered subjects. Type of data set: in vivo, human. Particulars: for concentration detected in cerebrospinal fluid, AD patients versus healthy subjects: cerebrospinal fluids, result in words; for Lidocaine peak ratio to lysine / Lidocaine peak ratio to lysine, average: cerebrospinal fluid; for Lidocaine peak ratio to lysine: individual samples, lidocaine hydrochloride standard dose 200 mg at the puncture site, LC/MS. As to the method: Cerebrospinal fluids of 17 Alzheimer's disease patients (10 male and 7 female Caucasions) and 17 healthy subjects of similar age, sex and race were used as samples. The samples were collected under epidural anesthesia with lidocaine (lidocaine hydrochloride (standard dose: 200 mg) was hypodermically administered at the puncture site). Protein components were removed from 150 microliters of each cerebrospinal fluid by using an ultrafiltration filter of 5000 NMWL (Ultrafree-MC BIOMAX-5, UFC3BCC00, produced by Millipore). To the cerebrospinal fluid, 25 microliters of a solution containing L-Valine-^13C5, ^15N or L-Lysine-^13C5, ^15N as an internal standard substance (0.1% formic acid, 50% methanol solvent) and 800 microliters of a 0.15% hydrochloric acid solution were added. This sample solution was applied to a solid phase extraction column, Oasis MCX (10 mg), produced by Waters. Washing was performed with 1 mL of water first, then with 1 mL of 50% methanol solvent containing 0.1% formic acid, subsequently with 1 mL of water, and with 1 mL of methanol. Then, elution was performed with 1 mL of a mixture of 25% aqueous ammonia and methanol (2:3, v/v), the eluate was dried, the residue was dissolved again in 25 microliters of 50% methanol, and insoluble substances were removed by using a PVDF membrane filter having a pore size of 0.22 micrometer to prepare a sample for LC/MS.
As for the material packed in the LC column, Primesep A resin (particle size: 5 micrometers, pore size: 100 angstroms) of SIELC Technologies (Prospect Heights, Ill.) was packed in a fused silica capillary having an internal diameter of 150 micrometers (internal surface was treated with TC-WAX, produced by GL Sciences, catalog number: 1010-27012) of which tip was tapered to a diameter of about 8 micrometers beforehand with a laser-based puller P-2000 (produced by Sutter) at a height of about 15 cm under a nitrogen gas pressure of about 7 MPa, and this was used as a column. 50% Methanol containing 0.1% formic acid was used as a mobile phase A, and 90% methanol containing 2% trifluoroacetic acid in addition to 0.1% formic acid was used as a mobile phase B. The concentration gradient of the mobile phase B was, from the start of elution, as follows: 0 minute (0%)-5 minutes (0%)-25 minutes (25%)-25.1 minutes (50%)-50 minutes (100%)-60 minutes (100%), and the flow rate was 1 microliter per minute. Since valine as the internal standard substance was eluted in a period of 5 to 25 minutes, and lysine as the internal standard substance was eluted in a period of 25 to 50 minutes, either one of the internal standard substances was appropriately used for quantification of each substance depending on the elution time. Qstar Pulsar i produced by Applied Biosystems was used in the cation detection mode as the mass spectrometer with an applied voltage of 2400 volts at a DP value of 10 and an IP value of 100 for improving the sensitivity to perform the measurement for the scanning range of 50 to 700 amu.
Further, by the MS/MS measurement, m/z 86.08 and m/z 58.06 were obtained from the former and the latter, respectively, as the product ions. The former was estimated to be that of lidocaine, and the latter was estimated to be that of MEGX, which is a metabolite of lidocaine. Therefore, specimens of these substances were obtained, and measured under the same LC/MS conditions. As a result, the same retention times and mass spectra were obtained, and thus it was confirmed that these peaks were those of lidocaine and MEXG.

Molecules are shown by their SMILES. Values joined by “and” are separate entries in the source; they are usually repeats but may differ in a detail not shown here. Identical values can stand only once.

On to `CCNCC(=O)Nc1c(C)cccc1C` [MEGX, monoethylglycinexylidide], for which the “concentration detected in cerebrospinal fluid, AD patients versus healthy subjects” value was “AD patient-specific low concentrations”.

For the compound `CCN(CC)CC(=O)Nc1c(C)cccc1C` [Lidocaine, lidocaine], the “concentration detected in cerebrospinal fluid, AD patients versus healthy subjects” value is listed as “AD patient-specific low concentrations”. Besides, the “Lidocaine peak ratio to lysine” value (AD patient) was 0.842 and 0.040 and 0.059 and 0.035 and 0.396 and 0.030 and 0.000 (2×) and 0.086 and 0.061 and 0.055 and 0.107 and 0.745 and 0.021 and 0.143 and 0.015 and 0.277. Also, the “Lidocaine peak ratio to lysine, average” value (average of 17 AD patients) is reported as 0.2. In addition, for the setting “average of 17 healthy controls”, the “Lidocaine peak ratio to lysine, average” value was 1.427. For the same compound, under “healthy control”, the “Lidocaine peak ratio to lysine” value is 1.40 and 0.83 and 2.29 and 1.20 and 1.72 and 2.84 and 1.53 and 0.96 and 0.91 and 1.79 and 1.50 and 0.72 and 1.09 and 1.31 and 0.98 and 0.67 and 2.54.

The values above are taken from patent publication US20110065202A1, “Method for Examination of Alzheimer's Disease” (EISAI R&D MANAGEMENT CO., LTD., priority 2008, published 2011).
